Measurements as given in patent US5326786A, “5,6,7,9-tetrahydro-1,2,3-trimethoxy-9-oxobenzo[alpha]heptalene derivative and pharmaceutical use” (Ohgen Research Laboratories Ltd., priority 1992, dated 1994).
Values after ≈ are worked out from the molar mass of the structure shown. Values joined by “and” are separate entries in the source; they are usually repeats but may differ in a detail not shown here. Identical values can stand only once. Counter-ions that a name gives are not always drawn.

Assays:
[1] = test system: adriamycin-resistant mouse leukemic cells p388/ADR; assay: In vitro cancer cell proliferation inhibiting test (1); type: cell-based; conditions: 48 h, read-out: IC50 (50% proliferation inhibitory concentration), RPMI 1640 with 10% fetal bovine serum, cultured for 2 days
Procedure: (§1) (1) 10^6 each of mouse leukemic cells p388/S and adriamycin-resistant mouse leukemic cells p388/ADR are suspended in RPMI 1640 media each containing 10% fetal bovine serum, respectively, and cultured for 2 days in the presence of a test compound (this was used after it was dissolved in dimethylsulfoxide to 1 mg/ml and the solution was diluted with a phosphate buffer).

[2] = test system: p388/S mouse leukemic cells; assay: as above; type: cell-based; conditions: 48 h, read-out: IC50 (50% proliferation inhibitory concentration), RPMI 1640 with 10% fetal bovine serum, cultured for 2 days
Procedure: as §1

cancer cells = conditions: known compounds, background; cited from earlier work
[3] = known compounds, background; cited from earlier work
Acute toxicity test = type: in vivo, mouse; conditions: mouse, in vivo, ip; intraperitoneal; CDF male mice; 10 days observation; Litchfield Wilcoxon method; printed interval 233 to 310 mg/kg
CDF male mice = assay: Acute toxicity test; type: in vivo, mouse; conditions: intraperitoneal
[4] = test system: adriamycin-resistant mouse leukemic cells p388/ADR; assay: In vitro cancer cell proliferation inhibiting test (2), Trypan Blue living cell count; type: cell-based
Procedure: (§2) (2) Mouse leukemic cells p388/S and adriamycin-resistant mouse leukemic cells P388/ADR subculturally transplanted in the abdominal cavity of mice were taken out together with the asites therefrom, respectively, and after washing, suspended in RPMI 1640 media (each containing 10% fetal bovine serum and 10 μM 2-mercaptoethanol) to 2×10^5 cells/ml, respectively.
(§3) Test solutions (solutions of the compound of the later-described Example 3 in phosphate-buffered physiological saline) were added to portions of each of these cell suspensions, respectively; and the mixtures were separately put into a 24-well culture plate and subjected to culture for 2 days in a 5% carbon dioxide culturing vessel.

[5] = test system: p388/S mouse leukemic cells; assay: as above; type: cell-based
Procedure: as §2, §3

Row | Compound | IC50 [1] | IC50 [2] | carcinostatic action (cancer cells) | toxicity [3] | further results
1 | COc1cc2c(c(OC)c1OC)-c1ccc(OC)c(=O)cc1C(NCC1COC(C)(C)O1)CC2 (racemic) [DL-N-(O,O-isopropylideneglyceryl)deacetylcolchicine] | 0.13 µg/mL (≈ 0.276 µM) | 0.013 µg/mL (≈ 0.0276 µM) |  |  | 
2 | COc1cc2c(c(OC)c1OC)-c1ccc(OC)c(=O)cc1[C@@H](NC(C)=O)CC2 [Colchicine, colchicine] |  |  | no sufficient carcinostatic action | strong toxicity | 
3 | COc1cc2c(c(OC)c1OC)-c1ccc(OC)c(=O)cc1C(NC[C@H]1COC(C)(C)O1)CC2 (stereo partly drawn) [D-N-(O,O-isopropylideneglyceryl)deacetylcolchicine] | 0.038 µg/mL (≈ 0.0806 µM) | 0.014 µg/mL (≈ 0.0297 µM) |  |  | 
4 | COc1cc2c(c(OC)c1OC)-c1ccc(OC)c(=O)cc1C(NC[C@@H]1COC(C)(C)O1)CC2 (stereo partly drawn) [Example 3, L-N-(O,O-isopropylideneglycerol)deacetylcolchicine] | 0.14 µg/mL (≈ 0.297 µM) | 0.018 µg/mL (≈ 0.0382 µM) |  |  | LD50 at 240 h (Acute toxicity test): 269 mg/kg; body weight change (CDF male mice; 10 days observation): tended to decrease up to 2 to 4 days after administration, but thereafter increased gradually; acute toxicity symptoms (CDF male mice; high administration groups, on and after one day after administration): the lie of hair got worse on and after one day after administration, and cases where diarrhea or loss of hair arose were also observed
5 | CNc1ccc2c(cc1=O)C(NCC1COC(C)(C)O1)CCc1cc(OC)c(OC)c(OC)c1-2 (centres unmarked) [N'-(O,O-isopropylideneglyceryl)-N-methyldeacetylcolchiceinamide tartrate salt] |  |  |  |  | IC50 (50% proliferation inhibitory concentration), P388/ADR ([4]; 2 days, experiment carried out three times, one value per experiment, tartrate salt): 0.0164 µg/mL and 0.0192 µg/mL; IC50 ([4]; Mus musculus, 48 h, read-out: IC50 (50% proliferation inhibitory concentration), P388/ADR, 2 days, experiment carried out three times, one value per experiment): 0.018 µg/mL; IC50 ([5]; Mus musculus, P388/S, 48 h, read-out: IC50 (50% proliferation inhibitory concentration), p388/S, 2 days, experiment carried out three times, one value per experiment): 0.0135 µg/mL; IC50 (50% proliferation inhibitory concentration), p388/S ([5]; p388/S, 2 days, experiment carried out three times, one value per experiment, tartrate salt): 0.0128 µg/mL and 0.0149 µg/mL
6 | CNc1ccc2c(cc1=O)[C@@H](NC(C)=O)CCc1cc(OC)c(OC)c(OC)c1-2 [N-methylcolchiceinamide] |  |  | no sufficient carcinostatic action | strong toxicity | 
